What all share (assay): KINOMEscan (ScanMAX) kinase profiling
Assay type in all cases: binding

Test [1] addresses T1, panel of 468 kinases (Homo sapiens, UniProt P53667).
T1 construct: purchased KINOMEscan (ScanMAX) service
Conditions: LIMK1; 1 μM; read-out: % control.

In test [2] the target is T2, panel of 468 kinases (Homo sapiens, UniProt P36888, N841I).
T2 construct: purchased KINOMEscan (ScanMAX) service
T2 sequence (P36888 27-993 N841I): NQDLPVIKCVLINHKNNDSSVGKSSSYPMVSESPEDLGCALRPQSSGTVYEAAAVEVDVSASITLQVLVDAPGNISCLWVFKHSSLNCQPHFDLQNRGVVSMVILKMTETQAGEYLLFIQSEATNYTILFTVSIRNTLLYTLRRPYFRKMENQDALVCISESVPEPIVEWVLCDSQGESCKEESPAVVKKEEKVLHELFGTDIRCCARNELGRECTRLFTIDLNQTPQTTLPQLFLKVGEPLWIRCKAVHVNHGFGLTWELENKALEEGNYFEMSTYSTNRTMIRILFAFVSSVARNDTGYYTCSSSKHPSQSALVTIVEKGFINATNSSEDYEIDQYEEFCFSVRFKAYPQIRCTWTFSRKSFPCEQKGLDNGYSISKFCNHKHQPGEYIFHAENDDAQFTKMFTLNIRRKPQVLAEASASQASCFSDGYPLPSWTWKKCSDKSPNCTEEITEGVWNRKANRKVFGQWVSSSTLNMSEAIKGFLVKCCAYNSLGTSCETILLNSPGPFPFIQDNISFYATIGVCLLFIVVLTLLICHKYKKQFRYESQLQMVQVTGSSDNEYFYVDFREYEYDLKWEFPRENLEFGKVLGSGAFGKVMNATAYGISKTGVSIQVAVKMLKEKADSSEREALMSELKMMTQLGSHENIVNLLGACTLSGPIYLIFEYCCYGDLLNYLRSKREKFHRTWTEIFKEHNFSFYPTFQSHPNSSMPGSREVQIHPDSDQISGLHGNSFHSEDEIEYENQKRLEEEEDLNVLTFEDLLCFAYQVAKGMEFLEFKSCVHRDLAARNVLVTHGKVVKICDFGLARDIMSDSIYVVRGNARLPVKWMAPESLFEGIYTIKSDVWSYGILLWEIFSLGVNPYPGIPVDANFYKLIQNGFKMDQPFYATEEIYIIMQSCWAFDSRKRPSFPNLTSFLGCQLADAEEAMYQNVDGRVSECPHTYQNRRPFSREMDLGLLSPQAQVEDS
Conditions: FLT3(N841I); 1 μM; read-out: % control.

The target of test [3] is T3, panel of 468 kinases (Homo sapiens, UniProt Q13546).
T3 construct: purchased KINOMEscan (ScanMAX) service
T3 sequence (Q13546 1-671): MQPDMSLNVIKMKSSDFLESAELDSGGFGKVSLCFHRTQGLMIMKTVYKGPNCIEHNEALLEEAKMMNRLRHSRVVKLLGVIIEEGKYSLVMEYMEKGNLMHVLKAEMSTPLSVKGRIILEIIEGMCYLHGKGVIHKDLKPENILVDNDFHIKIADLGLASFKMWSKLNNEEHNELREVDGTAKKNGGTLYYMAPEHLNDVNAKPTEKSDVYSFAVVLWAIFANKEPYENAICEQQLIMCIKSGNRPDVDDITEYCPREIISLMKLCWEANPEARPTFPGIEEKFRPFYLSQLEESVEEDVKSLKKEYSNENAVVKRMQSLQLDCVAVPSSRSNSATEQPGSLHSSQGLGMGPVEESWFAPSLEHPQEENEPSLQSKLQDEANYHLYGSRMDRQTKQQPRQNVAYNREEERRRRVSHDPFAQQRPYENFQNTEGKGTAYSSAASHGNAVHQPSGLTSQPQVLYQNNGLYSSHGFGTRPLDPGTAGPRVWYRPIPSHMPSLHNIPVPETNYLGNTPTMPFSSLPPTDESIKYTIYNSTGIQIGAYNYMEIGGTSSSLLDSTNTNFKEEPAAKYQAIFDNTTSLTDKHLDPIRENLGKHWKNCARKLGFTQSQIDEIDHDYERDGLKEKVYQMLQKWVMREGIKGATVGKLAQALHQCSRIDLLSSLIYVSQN
Conditions: RIPK1; 1 μM; read-out: % control.

The target of test [4] is T4, panel of 468 kinases (Homo sapiens, UniProt Q9Y2U5).
T4 construct: purchased KINOMEscan (ScanMAX) service
T4 sequence (Q9Y2U5 1-619): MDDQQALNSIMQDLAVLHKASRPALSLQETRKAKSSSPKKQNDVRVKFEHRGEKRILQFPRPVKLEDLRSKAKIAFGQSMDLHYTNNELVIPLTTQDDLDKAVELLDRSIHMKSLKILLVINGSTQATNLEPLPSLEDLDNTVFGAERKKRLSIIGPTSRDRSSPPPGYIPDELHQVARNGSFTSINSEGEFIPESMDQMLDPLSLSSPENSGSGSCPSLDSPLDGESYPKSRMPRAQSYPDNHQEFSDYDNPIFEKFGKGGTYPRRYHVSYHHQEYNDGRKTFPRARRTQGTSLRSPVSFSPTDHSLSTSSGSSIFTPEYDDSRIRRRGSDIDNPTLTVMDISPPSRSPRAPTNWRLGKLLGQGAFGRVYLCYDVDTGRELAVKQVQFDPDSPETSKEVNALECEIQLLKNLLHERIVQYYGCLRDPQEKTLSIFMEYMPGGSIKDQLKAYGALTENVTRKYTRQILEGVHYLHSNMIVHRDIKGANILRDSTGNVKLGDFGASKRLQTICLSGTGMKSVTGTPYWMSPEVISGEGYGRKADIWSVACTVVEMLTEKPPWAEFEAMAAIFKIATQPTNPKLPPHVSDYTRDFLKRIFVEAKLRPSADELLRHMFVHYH
Conditions: MAP3K2; 1 μM; read-out: % control.

Test [5] has as its target T5, panel of 468 kinases (Homo sapiens, UniProt Q9BYT3).
T5 construct: purchased KINOMEscan (ScanMAX) service
The following applies: STK33; 1 μM; read-out: % control.

Test [6] addresses T6, panel of 468 kinases (Homo sapiens, UniProt P22607).
T6 construct: purchased KINOMEscan (ScanMAX) service
The following applies: FGFR3; 1 μM; read-out: % control.

The target of test [7] is T7, panel of 468 kinases (Homo sapiens, UniProt P41240).
T7 construct: purchased KINOMEscan (ScanMAX) service
T7 sequence (P41240 whole entry): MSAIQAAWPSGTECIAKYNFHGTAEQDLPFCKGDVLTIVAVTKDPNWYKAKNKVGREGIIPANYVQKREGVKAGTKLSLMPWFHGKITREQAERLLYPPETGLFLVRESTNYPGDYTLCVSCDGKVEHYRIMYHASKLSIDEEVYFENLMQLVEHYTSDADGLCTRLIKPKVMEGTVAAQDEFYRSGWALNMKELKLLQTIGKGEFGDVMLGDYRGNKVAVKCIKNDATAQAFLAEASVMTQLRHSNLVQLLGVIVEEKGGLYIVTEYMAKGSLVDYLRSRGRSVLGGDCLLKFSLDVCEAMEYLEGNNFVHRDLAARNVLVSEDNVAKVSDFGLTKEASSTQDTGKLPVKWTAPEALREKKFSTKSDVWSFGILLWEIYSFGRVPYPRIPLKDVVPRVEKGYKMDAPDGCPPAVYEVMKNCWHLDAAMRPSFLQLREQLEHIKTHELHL
Conditions: CSK; 1 μM; read-out: % control.

T1 sequence (P53667 whole entry): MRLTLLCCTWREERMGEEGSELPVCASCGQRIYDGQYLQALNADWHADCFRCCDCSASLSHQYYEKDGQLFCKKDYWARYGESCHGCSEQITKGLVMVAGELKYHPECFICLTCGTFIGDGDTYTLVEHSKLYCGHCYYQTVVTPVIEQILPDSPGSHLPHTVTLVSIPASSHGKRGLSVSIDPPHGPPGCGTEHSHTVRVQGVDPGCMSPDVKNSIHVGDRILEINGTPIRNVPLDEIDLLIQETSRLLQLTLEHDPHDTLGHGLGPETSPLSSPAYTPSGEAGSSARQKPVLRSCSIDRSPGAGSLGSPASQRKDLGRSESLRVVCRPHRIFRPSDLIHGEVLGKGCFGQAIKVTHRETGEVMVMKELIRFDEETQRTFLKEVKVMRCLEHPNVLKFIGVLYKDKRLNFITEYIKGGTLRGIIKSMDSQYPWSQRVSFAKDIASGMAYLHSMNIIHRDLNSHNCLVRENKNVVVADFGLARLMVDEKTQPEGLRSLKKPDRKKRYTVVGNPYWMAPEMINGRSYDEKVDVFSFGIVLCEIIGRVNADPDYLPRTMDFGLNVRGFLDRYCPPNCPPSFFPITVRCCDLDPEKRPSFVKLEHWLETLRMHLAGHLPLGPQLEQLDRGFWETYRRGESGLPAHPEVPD
T6 sequence (P22607 23-806): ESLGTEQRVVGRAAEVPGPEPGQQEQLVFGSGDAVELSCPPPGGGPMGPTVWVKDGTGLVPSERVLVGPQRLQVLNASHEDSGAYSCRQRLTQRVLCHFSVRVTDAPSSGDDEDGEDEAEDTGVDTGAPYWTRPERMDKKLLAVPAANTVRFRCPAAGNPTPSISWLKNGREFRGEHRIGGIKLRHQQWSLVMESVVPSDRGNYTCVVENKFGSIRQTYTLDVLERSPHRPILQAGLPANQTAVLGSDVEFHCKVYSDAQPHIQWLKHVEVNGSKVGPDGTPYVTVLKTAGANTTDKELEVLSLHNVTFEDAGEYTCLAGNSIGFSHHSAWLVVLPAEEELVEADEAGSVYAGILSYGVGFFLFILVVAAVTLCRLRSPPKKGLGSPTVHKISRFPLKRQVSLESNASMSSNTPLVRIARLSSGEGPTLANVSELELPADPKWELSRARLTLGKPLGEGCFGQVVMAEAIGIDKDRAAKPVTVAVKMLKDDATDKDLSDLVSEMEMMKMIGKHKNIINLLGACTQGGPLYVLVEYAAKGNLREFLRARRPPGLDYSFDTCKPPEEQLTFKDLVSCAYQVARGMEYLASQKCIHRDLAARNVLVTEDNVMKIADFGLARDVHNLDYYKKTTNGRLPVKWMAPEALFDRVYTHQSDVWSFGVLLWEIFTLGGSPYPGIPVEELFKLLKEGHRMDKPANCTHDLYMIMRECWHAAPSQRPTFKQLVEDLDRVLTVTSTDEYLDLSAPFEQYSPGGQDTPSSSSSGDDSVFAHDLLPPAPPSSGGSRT
T5 sequence (Q9BYT3 whole entry): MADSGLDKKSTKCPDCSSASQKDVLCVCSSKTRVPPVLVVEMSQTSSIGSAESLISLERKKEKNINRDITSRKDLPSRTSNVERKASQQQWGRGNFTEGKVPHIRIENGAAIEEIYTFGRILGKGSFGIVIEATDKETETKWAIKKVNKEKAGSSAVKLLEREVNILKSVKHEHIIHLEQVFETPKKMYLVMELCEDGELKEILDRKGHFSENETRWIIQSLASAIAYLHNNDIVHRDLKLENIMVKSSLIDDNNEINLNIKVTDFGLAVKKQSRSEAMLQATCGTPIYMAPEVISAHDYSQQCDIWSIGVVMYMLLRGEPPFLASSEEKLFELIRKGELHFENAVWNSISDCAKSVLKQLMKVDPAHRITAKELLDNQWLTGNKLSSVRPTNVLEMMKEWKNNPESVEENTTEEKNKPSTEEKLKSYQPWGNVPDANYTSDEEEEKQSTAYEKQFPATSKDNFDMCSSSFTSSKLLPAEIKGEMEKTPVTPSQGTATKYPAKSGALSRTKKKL

Turning to `CNc1nc(Nc2ccc(S(=O)(=O)N3CCC(N4CCOCC4)CC3)cc2OC)nc2[nH]cc(Cl)c12` [Compound 12, 5-chloro-N2-(2-methoxy-4-((4-morpholinopiperidin-1-yl)sulfonyl)phenyl)-N4-methyl-7H-pyrrolo[2,3-d]pyrimidine-2,4-diamine], the remaining binding at 1 µM on panel of 468 kinases [1] came out at 100%; at panel of 468 kinases [2], 85%; at panel of 468 kinases [3], 92%; on panel of 468 kinases [4], 80%; at panel of 468 kinases [5], 10%; at panel of 468 kinases [6], 100%. Further, the remaining binding at 1 µM on panel of 468 kinases [7] worked out at 100%.

As for `CNc1nc(Nc2ccc(P3(=O)CCN(C4CCOCC4)CC3)cc2OC)nc2[nH]cc(Cl)c12` [Compound 77, 4-(4-((5-chloro-4-(methylamino)-7H-pyrrolo[2,3-d]pyrimidin-2-yl)amino)-3-methoxyphenyl)-1-(tetrahydro-2H-pyran-4-yl)-1,4-azaphosphinane 4-oxide], the remaining binding at 1 µM was 100% on panel of 468 kinases [1]; 99% at panel of 468 kinases [2]; 88% at panel of 468 kinases [3]; 86% at panel of 468 kinases [4]; 6.9% on panel of 468 kinases [5]; 100% on panel of 468 kinases [6]. The remaining binding at 1 µM on panel of 468 kinases [7] stood at 100%.

As to `CNc1nc(Nc2ccc(C(=O)N3CCC(N4CCOCC4)CC3)c3c2OCO3)nc2[nH]cc(Cl)c12` [Compound 75, (7-((5-chloro-4-(methylamino)-7H-pyrrolo[2,3-d]pyrimidin-2-yl)amino)benzo[d][1,3]dioxol-4-yl)(4-morpholinopiperidin-1-yl)methanone], the remaining binding at 1 µM at panel of 468 kinases [1] is 100%; at panel of 468 kinases [2], 65%; on panel of 468 kinases [3] it was 89%; at panel of 468 kinases [4], 15%; at panel of 468 kinases [5], 7.2%; on panel of 468 kinases [6], 98%. For the same compound, the remaining binding at 1 µM at panel of 468 kinases [7] came out at 100%.

These data come from patent US12479847B2 (DANA-FARBER CANCER INSTITUTE, INC., priority 2019, dated 2025).
